The text below walks through data of patent US12454529B2, “Piperazine cyclic ureas” (SIRONAX LTD., priority 2020, dated 2025).

The first assay concerns HT-29 cells. The assay is described as follows: HT-29 cell necrosis/necroptosis inhibition (TNF-α + SMAC mimetic + zVAD-FMK; CellTiter-Glo cell viability). In kind it is cell-based. The following applies: Homo sapiens; HT-29 cells, TNF-α 10 ng/ml + SMAC mimetic 6 μM + zVAD-FMK 10 μM, 20 hours; geometric mean, 10 points in duplicate; read-out: EC50 (Cell activity; Necrosis/Necroptosis Inhibitory Activity, Compounds 1-142). The procedure, abridged:
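HT-29 cells (~5,000/well) were switched to FBS-free McCOY's 5A holding TNF-α (10 ng/ml), SMAC mimetic (6 μM) and zVAD-FMK (10 μM), then dosed with a 10-point 1:3 series for 20 h at 37 °C. CellTiter-Glo luminescence gave viability; geometric mean EC50 from duplicates.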
What is called EC50 is the concentration needed to bring the measured effect to its halfway point. Consider `COc1nc(OC)c(-c2nc(N3CCN(C(=O)N4N=CC[C@H]4c4cc(F)cc(F)c4)CC3)ncc2F)c(OC)n1` [Compound 49, (S)-(5-(3,5-difluorophenyl)-4,5-dihydro-1H-pyrazol-1-yl)(4-(5-fluoro-2′,4′,6′-trimethoxy-[4,5′-bipyrimidin]-2-yl)piperazin-1-yl)methanone], for which the EC50 fell in the range of 0.1 to 100 nM.
With `O=C(N1CCN(c2nccc(-c3ccc[nH]3)n2)CC1)N1N=CC[C@H]1c1cc(F)cc(F)c1` [Compound 6, (S)-(4-(4-(1H-pyrrol-2-yl)pyrimidin-2-yl)piperazin-1-yl)(5-(3,5-difluorophenyl)-4,5-dihydro-1H-pyrazol-1-yl)methanone], the EC50 fell in the range of 0.1 to 100 nM.
On to `Cn1nc(CO)nc1-c1nc(N2CCN(C(=O)N3N=CC[C@H]3c3cc(F)cc(C#N)c3)CC2)ncc1F` [Compound 72, (S)-3-fluoro-5-(1-(4-(5-fluoro-4-(3-(hydroxymethyl)-1-methyl-1H-1,2,4-triazol-5-yl)pyrimidin-2-yl)piperazine-1-carbonyl)-4,5-dihydro-1H-pyrazol-5-yl)benzonitrile], for which the EC50 was in the range of 0.1 to 100 nM.
Same read-out and setting: the same measure for `Cn1ncnc1-c1nc(N2CCN(C(=O)N3N=CC[C@H]3c3cc(F)cc(C#N)c3)CC2)ncc1F` [Compound 66, (S)-3-fluoro-5-(1-(4-(5-fluoro-4-(1-methyl-1H-1,2,4-triazol-5-yl)pyrimidin-2-yl)piperazine-1-carbonyl)-4,5-dihydro-1H-pyrazol-5-yl)benzonitrile]: 0.1 to 100 nM; for `N#Cc1cc(F)cc([C@@H]2CC=NN2C(=O)N2CCN(c3nccc(-c4cc[nH]n4)n3)CC2)c1` [Compound 34, (5)-3-(1-(4-(4-(1H-pyrazol-3-yl)pyrimidin-2-yl)piperazine-1-carbonyl)-4,5-dihydro-1H-pyrazol-5-yl)-5-fluorobenzonitrile]: 0.1 to 100 nM.
On the same count and under the same terms, the same measure for `Cc1nc(C)c(-c2nc(N3CCN(C(=O)N4N=CC[C@H]4c4cc(F)cc(F)c4)CC3)ncc2F)s1` [Compound 55, (S)-(5-(3,5-difluorophenyl)-4,5-dihydro-1H-pyrazol-1-yl)(4-(4-(2,4-dimethylthiazol-5-yl)-5-fluoropyrimidin-2-yl)piperazin-1-yl)methanone]: 0.1 to 100 nM; for `Cc1cc(-c2nc(N3CCN(C(=O)N4N=CC[C@H]4c4cc(F)cc(C#N)c4)CC3)ncc2F)n(C)n1` [Compound 84, (S)-3-(1-(4-(4-(1,3-dimethyl-1H-pyrazol-5-yl)-5-fluoropyrimidin-2-yl)piperazine-1-carbonyl)-4,5-dihydro-1H-pyrazol-5-yl)-5-fluorobenzonitrile]: 0.1 to 100 nM.

The same assay, now with this note: Homo sapiens; HT-29 cells, TNF-α 10 ng/ml + SMAC mimetic 6 μM + zVAD-FMK 10 μM, 20 hours; geometric mean, 10 points in duplicate; read-out: EC50 (Cell activity; Necrosis/Necroptosis Inhibitory Activity, Compounds 143-323).
For the compound `CCn1ncnc1-c1nc(N2CCN(C(=O)N3N=CC[C@H]3c3cc(F)cc(C#N)c3)CC2)ncc1F` [Compound 167, (S)-3-(1-(4-(4-(1-ethyl-1H-1,2,4-triazol-5-yl)-5-fluoropyrimidin-2-yl)piperazine-1-carbonyl)-4,5-dihydro-1H-pyrazol-5-yl)-5-fluorobenzonitrile], the half-maximal effective concentration (EC50) was 0.1 to 100 nM.
The same measure, in the same setting: the same measure for `Cc1cnn(C)c1-c1cc(N2CCN(C(=O)N3N=CC[C@H]3c3cc(F)cc(F)c3)CC2)c(F)cn1` [Compound 149, (S)-(5-(3,5-difluorophenyl)-4,5-dihydro-1H-pyrazol-1-yl)(4-(2-(1,4-dimethyl-1H-pyrazol-5-yl)-5-fluoropyridin-4-yl)piperazin-1-yl)methanone]: 0.1 to 100 nM; for `Cn1nc(CO)nc1-c1nc(N2CCN(C(=O)N3N=CC[C@H]3c3cncc(F)c3)CC2)ncc1F` [Compound 174, (S)-(4-(5-fluoro-4-(3-(hydroxymethyl)-1-methyl-1H-1,2,4-triazol-5-yl)pyrimidin-2-yl)piperazin-1-yl)(5-(5-fluoropyridin-3-yl)-4,5-dihydro-1H-pyrazol-1-yl)methanone]: 0.1 to 100 nM.
On to `Cc1nc(C)n(-c2nc(N3CCN(C(=O)N4N=CCC4c4ncc(C)s4)CC3)ncc2F)n1` (centres unmarked) [Compound 216, (4-(4-(3,5-dimethyl-1H-1,2,4-triazol-1-yl)-5-fluoropyrimidin-2-yl)piperazin-1-yl)(5-(5-methylthiazol-2-yl)-4,5-dihydro-1H-pyrazol-1-yl)methanone], for which the concentration for a half-maximal effect (EC50) is 0.1 to 100 nM.
